Measured values taken from patent US5532267A, “Amidinonaphthyl furancarboxylate derivatives and acid addition salts therof” (Torii & Co., Ltd., priority 1992, dated 1996).

How the values were obtained:
C1s = target: T1, C1s (Homo sapiens, UniProt P09871); test: anti-complement (anti-C1 esterase) activity, C1s hydrolysis of ATEE (acetyltyrosine ethyl ester); type: biochemical
T1 sequence (P09871 16-688): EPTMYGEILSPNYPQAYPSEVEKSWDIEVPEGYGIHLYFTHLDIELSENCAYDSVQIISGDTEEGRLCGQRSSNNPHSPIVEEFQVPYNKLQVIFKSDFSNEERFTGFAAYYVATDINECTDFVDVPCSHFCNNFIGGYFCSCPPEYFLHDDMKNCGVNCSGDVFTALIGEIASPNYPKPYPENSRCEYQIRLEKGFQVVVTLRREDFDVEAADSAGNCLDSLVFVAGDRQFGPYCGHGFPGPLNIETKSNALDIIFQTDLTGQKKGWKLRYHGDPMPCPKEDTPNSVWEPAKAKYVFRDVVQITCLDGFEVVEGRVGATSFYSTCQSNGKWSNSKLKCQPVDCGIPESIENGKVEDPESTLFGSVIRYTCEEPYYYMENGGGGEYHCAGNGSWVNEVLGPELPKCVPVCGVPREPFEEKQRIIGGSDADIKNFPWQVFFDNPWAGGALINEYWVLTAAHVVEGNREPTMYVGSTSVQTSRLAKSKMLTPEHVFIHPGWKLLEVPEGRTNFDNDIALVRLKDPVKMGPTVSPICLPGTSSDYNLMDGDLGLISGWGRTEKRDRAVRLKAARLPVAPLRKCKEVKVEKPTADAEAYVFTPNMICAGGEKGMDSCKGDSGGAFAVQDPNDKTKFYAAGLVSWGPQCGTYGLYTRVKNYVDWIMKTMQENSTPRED
Method: The anti-C1 esterase (C1r, C1s) activity was determined according to the method of Okamura et al. (Biochem. Biophys. Acta (1973), volume 295, pages 252-257). […] The values for C1s represent molar concentrations (IC50) of test compounds which inhibit 50% of the activity of C1s to hydrolyze ATEE (acetyltyrosine ethyl ester).

kallikrein = test: anti-kallikrein activity, hydrolysis of TAME (tosylarginine methyl ester); type: biochemical
Method: (§1) The values in Table 1 represent molar concentrations (IC50) of test compounds which inhibit 50% of the activity of each enzyme to hydrolyze TAME (tosylarginine methyl ester). The anti-trypsin, anti-plasmin, anti-kallikrein and anti-thrombin activities were determined according to the method of Muramatsu et al. (J. Biochem. (1965), volume 58, page 214).

thrombin = thrombin (Homo sapiens, UniProt P00734); test: anti-thrombin activity, hydrolysis of TAME (tosylarginine methyl ester); type: biochemical
Method: as §1

adjuvant arthritis = test: Effectiveness in treating adjuvant arthritis (Mycobacterium butyricum); type: in vivo, rat; conditions: 60 mg/kg, oral, day -1 to day 13
Method: Adjuvant arthritis is known as a representative model of autoimmune diseases and is a effective means of testing agents to treat human rheumatoid arthritis (Encyclopedia of Immunology, edited by I. M. Roitt, Academic Press, 1992; Otterness, I. G., et al., J. of Rheumatology (1991), volume 18, pages 505-511),
The method of experiment was as follows. A 0.6% Mycobacterium butyricum liquid paraffin suspension, 0.1 ml/animal, was administered to a rat at a subcutaneous site of left hind-limb sole to induce adjuvant arthritis. The present compound was orally administered (in the form of a suspension in water) consecutively from 1 day before the induction to 13 days after the induction. The efficacy of the present compound on adjuvant arthritis was evaluated by examining the swelling accompanied by red spots and subcutaneous knots at the fore-limb, hind-limb, tail, ear and periphery of eye with the lapse of days (on the 8th, 10th, 12th, 14th, 16th and 18th days after adjuvant administration), expressing the results in terms of scores according to the method of F. D. Wood et al. (Int. Arch. Allergy (1969), volume 35, pages 456-467), and calculating the percentage inhibition relative to the control group. Thus, the higher value of percentage inhibition indicates the higher effectiveness.

Masugi's nephritis [1] = test: Effectiveness in treating Masugi's nephritis (experimental glomerulonephritis), protein in urine; type: in vivo, rat; conditions: po, 30 mg/kg
Method: […] […] As the index to effectiveness, the protein concentration in urine was determined. That is, when inflammation develops in the kidney, it causes damage to renal tubules, etc., and a resultant increase in protein concentration in urine.

Masugi's nephritis [2] = test: Effect of TO-195 on Masugi's nephritis; type: in vivo, rat; conditions: oral
[3] = system: rabbit serum albumin (RSA) nephritis; test: Effect of TO-195 on rabbit serum albumin (RSA) nephritis; type: in vivo, rat (Sprague Dawley); conditions: oral
Source text: About 90% of human glomerular nephritis has been described as being immune complex nephritis which is caused by deposition in the glomeruli of immune complexes formed by the binding of antigens with antibodies in the blood. Effectiveness in treating rabbit serum albumin (RSA) nephritis in rats, which is known as an experimental model of nephritis caused by antigen-antibody reaction (Folia pharmacol. japon, 78: 491-499 (1981)), is shown below:
Sprague Dawley rats were immunized by subcutaneous injection in the back of 3 mg rabbit serum albumin in complete Freud's adjuvant (CFA). Two weeks after the subcutaneous injection, the rats were administered 1 mg of RSA (in saline) into the tail vein every other day for 10 weeks. Seven weeks after the first subcutaneous injection, the rats were also boosted with 3 mg RSA as in the first subcutaneous injection. The control group was injected with saline. Two weeks after the first IV injection, rats with more than 100 mg/day proteinurea after IV administration of RSA were divided into two groups each consisting of five rats. One group was orally given 30 mg/kg of TO-195 (in a suspension in water) twice a day for 20 days. The other group (untreated) and the control group were given distilled water p.o. (oral administration). The index of effectiveness of TO-195 was protein concentration in urine.

in vivo = conditions: rat
Method: In the rat acute toxicity test, the LD50 was greater than 2,000 mg/kg (p.o. oral administration). The compound of Example 22 was tested in three groups.(five rats per group) of rats at dosages of (1) 2000 mg/kg, (2) 1000 mg/kg, and (3) 500 mg/kg; the compound was prepared in the form of a suspension in distilled water and administered orally.

[4] = Toxicity in humans (Phase I study); type: in vivo, human; conditions: healthy male adult volunteers, capsules, 5 to 400 mg/man
Method: Toxicity in humans (Phase I study): This test was for confirmation of the safety of the drug (which was administered to healthy male adult volunteers). Taking into consideration the above toxicity tests, the compound of Example 22 was prepared in the form of capsules containing the compound in an increasing amount (from 5 mg/man to 400 mg/man (body weight 50-60 kg)).

## Cl.N=C(N)c1ccc2cc(OC(=O)c3ccc(CNC(=O)CCCC(=O)O)o3)ccc2c1 [Example 22, 6-Amidino-2-naphthyl 5-(4-carboxybutyrylaminomethyl)furan-2-carboxylate hydrochloride]
C1s
  C1s inhibition (in words): inhibitor
C1s; hydrolysis of ATEE, read-out: Cls: molar concentration inhibiting 50% of C1s activity (IC50)
  IC50: 250 nM
kallikrein
  kallikrein inhibition (in words): inhibitor
kallikrein; hydrolysis of TAME, read-out: Kal: molar concentration inhibiting 50% of enzyme activity (IC50)
  IC50: 470 nM
thrombin
  thrombin inhibition (in words): inhibitor
thrombin; hydrolysis of TAME, read-out: Thr: molar concentration inhibiting 50% of enzyme activity (IC50)
  IC50: 3.5 µM
Adjuvant arthritis
  Percentage inhibition (arthritis score): 97.3%
Masugi's nephritis [1]
  Protein concentration in urine: 3.0 ± 2.0 mg/mL
Masugi's nephritis [2]; 3, 10, or 30 mg/kg×2/day, from 2 days before through day 10 after nephrotoxin
  urinary protein excretion (in words): significantly decreased urinary protein excretion
Masugi's nephritis [2]; 10 and 30 mg/kg×2/day, compared to control group
  Light microscopic examination of the glomeruli (in words): significant anti-nephritic effect
Masugi's nephritis [2]; twice a day from day 4 to day 10 after nephrotoxin
  urinary protein excretion (in words): significantly decreased urinary protein excretion
[3]; 30 mg/kg twice a day, 20 days, mean ± standard deviation, five animals, untreated 385.9 ± 187.23, control 8.5 ± 2.62
  Protein concentration in urine: 152.1 ± 49.11 mg/mL
[3]; 30 mg/kg×2/day
  N-acetyl-β-D-glucosamineidase excretion (in words): decreased
  alkaline phosphatase excretion (in words): decreased
  urinary protein excretion (in words): decreased urinary protein excretion
In vivo; in vivo, po
  LD50 at 336 h: > 2000 mg/kg
In vivo; oral, up to 2,000 mg/kg, two weeks observation
  general conditions and survival (in words): no changes were found
[4]
  adverse side effects (in words): No adverse side effects were found
